Tested on: Human sebocytes
Experiment: Neutral fat detection (Nile red staining, fluorescence intensity) in human sebocytes
Format: cell-based
Procedure: Human sebocytes (Cat. No. 36079-01, Celprogen, Torrance, Calif., USA) were cultured in Dulbecco's Modified Eagle Medium (DMEM): Nutrient Mixture F-12 (DMEM/F12) purchased from Thermo Fisher Scientific Limited (Barrington, Ill., USA), 10% fetal bovine serum (FBS) purchased from Gibco, Grand Island, N.Y., USA and penicillin/streptomycin (100 IU/50 […]), incubated at 37° C. in the 5% CO2 atmosphere.
Human sebocytes were implanted in 24- or 96-well plates. After 24 hours of culture, the cells were divided into a negative control group, a positive control group and an experimental group. […] The treated human sebocytes were cultured for two days. Human sebocytes were fixed with 4% formaldehyde at room temperature. After 60 minutes of fixation, the cells were washed with PBS and stain with Nile Red solution (1 μg/ml in PBS) at 37° C. for 15 minutes. Next, the cells were washed and observed under a fluorescent microscope. Fluorescence intensity was measured with fluorometer Spectra Max i3.

[1] = 0.1 mM LA + 50 μg/mL peptide vs LA alone, FIG. 1E

Row | Compound | lipid content compared with the negative control group (0.1 mM LA alone vs negative control, FIG. 1E) | fluorescence intensity (lipid content of sebocytes, Nile red) (0.1 mM linoleic acid (LA) alone, positive control group, negative control about 1, FIG. 1E, cultured two days) | fluorescence intensity (lipid content of sebocytes, Nile red) (50 μg/mL peptide, negative control about 1.0, FIG. 2E) | fluorescence intensity (lipid content of sebocytes, Nile red) (100 μg/mL peptide, negative control about 1.0, FIG. 2E) | fluorescence intensity (lipid content of sebocytes, Nile red) (0.1 mM LA + 50 μg/mL lactoferrin peptide, negative control about 1, positive control (LA) about 3.44, FIG. 1E) | lipid content increase compared with the positive control group (LA) [1] | promoting and/or increasing the content of lipid synthesized by the induction of LA (significance vs positive control) [1] | fluorescence intensity (lipid content of sebocytes, Nile red) (400 μg/mL peptide (so in the source), negative control about 1.0, FIG. 2E) | concentration dependence of the lipid content increase (50, 100, 200 μg/mL peptide, FIG. 2)
1 | CCCCC/C=C\C/C=C\CCCCCCCC(=O)O [LA, linoleic acid, reference compound] | more than 3 times | about 3.44 | – | – | – | – | – | – | –
2 | Lf13: Lactoferrin-derived peptide purchased from DgPeptides; presumably the derived peptide comprising the amino acid sequence of SEQ ID NO: 01 (APRKNVRWCTISQ; Lactoferrin derived peptide) | – | – | about 1.29 | about 1.44 | about 4.67 | 40% | significant difference | about 1.54 | dose-dependent manner
